Key:
[1] = tested on: TNBS colitis; assay: TNBS colitis mouse model with and without prednisolone, change in endoscopic score day 3 to day 11 (Example 12); assay type: in vivo, C56/BL/6 mice
Protocol: Colitis was induced in C56/BL/6 mice and 3 days after disease induction daily treatments commenced.
Mice were induced with colitis by administering TNBS in the same manner as example 11. After three days the lesions were scored by endoscopy and the animals treated with i). 150 mg/kg bromelain in water, ii) 150 mg bromelain and rectally administered threonine/sodium butyrate/vitamin D3, iii). 2 mg/kg oral prednisolone or iv). 150 mg bromelain and rectally administered threonine/sodium butyrate/vitamin D3 plus 2 mg/kg oral prednisolone. Endoscopic scores were measured at day 11 and the change in endoscopic score between day 3 and day 11 calculated (FIG. 16).
Groups are i) placebo, ii) 150 mg bromelain in water orally, iii) 150 mg bromelain & 15 mg/kg menthol orally plus GaRP rectally, iv) 150 mg bromelain & 15 mg/kg menthol orally plus GaRP and 2 mg/kg prednisolone rectally, v) 2 mg/kg prednisolone rectally, and vi) GaRP rectally. GaRP is sodium butyrate 185 mg/kg, threonine 280 mg/kg and Vitamin D3 3.84 micrograms per kg. […] The threonine, sodium butyrate and vitamin D3 were formulated and administered as a rectal gavage at the top of the colon to simulate a formulation which releases in the colon; i.e., to achieve administration to the lower intestine.

[2] = tested on: TNBS colitis; assay: Histological scoring of colitis in colon sections post treatment (Example 14); assay type: in vivo, C56/BL/6 mice; conditions: TNBS colitis mice, 2 mg/kg prednisolone
Description: Colitis was induced and treated C56/BL/6 mice from examples 11 and 12 were euthanised post treatment and the colons sectioned for histopathological analysis. Each bar represents the mean histopathology score for the treatment groups. Values of the number of animals, means, standard deviations and statistical significance relative to placebo are shown in parentheses.
In this example, the colon was fixed, stained and sectioned before being assessed by microscopy in a blinded manner. Colons were examined not only for active disease but evidence of recovery from disease and scored according to the following criteria. Scoring was performed in triplicate blinded to the scorer with a maximum score of 3 in each of 6 categories.
• Hypervascularization (opening of blood vessels) • Presence of mononuclear cells (architecture also disappear) • Epithelial hyperplasia (elongated crypt and villi) • Epithelial injury (loss of epithelial continuity) • Presence of neutrophils • Lymphoid aggregates (scored 0-2) 0,1-2, >2
Data were collated and analysed by student t test for significance against placebo control.

[3] = tested on: IL-8 release from Caco-2 monolayers; assay: Release of IL-8 from polarised Caco-2 monolayers stimulated with LPS, TNF-α, IFN-β; assay type: cell-based, human
Protocol: Inflammatory model of Caco-2 polarised monolayer stimulated with inflammatory mediators LPS, TNF-α, IFN-β: Polarised Caco-2 models were generated as previously described. When cell cultures reached a baseline TER of >1000/cm^2, the monolayers were stimulated by addition of 0.6 ml containing 50 ng/ml IFN-β, 10 μg/ml LPS and 5 ng/ml TNFα to the basolateral compartment. Immediately after the addition of the stimulation cocktail 0.25 ml of GaRP±0-80 μg/ml bromelain was applied to the apical compartment. After the 24 h incubation culture supernatants from the apical side were collected for quantitation of IL-8.
The human colorectal adenocarcinoma cell-line C2BBe1 was grown and maintained in Dulbecco's modified Eagle's medium (DMEM) supplemented with 10% v/v fetal bovine serum (FBS), 4 mM L-glutamine, 100 U/ml penicillin and […] streptomycin. All experiments were conducted on C2BBe1 cells within 12 passages after thawing.
In an experiment to evaluate the anti-inflammatory effect of bromelain or various GaRP formulations, 0.25 ml of test samples was applied to the apical side for 24 h, at the same time 0.6 ml of a cocktail containing 50 ng/ml IFN+10 ug/ml LPS+5 ng/ml TNF was added to the basolateral side in this model. After the 24 h incubation culture supernatants from the apical side were collected and IL-8 quantitated by ELISA.

[4] = tested on: Enterocyte; assay: Observed therapeutic effective dose determined in the in vitro experiments (Table 4); assay type: cell-based, human
Protocol: (§1) The observed therapeutic effective dose was determined in the in vitro experiments described herein.
(§2) Table 4 summarises the observed therapeutic effective dose for each GaRP formulation component.

[5] = tested on: Macrophage; assay: as above; assay type: cell-based, human
Protocol: as §1, §2

| SMILES | Mean reduction in endoscopic score ([1]; TNBS colitis mice, change day 3 to day 11, 2 mg/kg prednisolone) | mean improvement in endoscopic score at day 11 ([1]; daily treatment from day 3, bromelain 150 mg/kg, menthol 15 mg/kg, prednisolone 2 mg/kg where present, GaRP rectally) | Histological score of colitis, Mean [2] | % inhibition of the release of IL-8 Median ± SEM ([3]; formulation or component plus 80 ug/ml bromelain, 24 h) [%] | % increase in anti-inflammatory activity compared to equivalent formulation without bromelain (difference of means) ([3]; plus 80 ug/ml bromelain) [%] | % inhibition of the release of IL-8 Median ± SEM ([3]; without bromelain, test sample apical 24 h, IFN+LPS+TNF cocktail basolateral) [%] | observed therapeutic effective dose, Target cell Enterocyte (pg/cell) [4] [pg/cell] | observed therapeutic effective dose, Target cell Macrophage (pg/cell) [5] [pg/cell] |
| --- | --- | --- | --- | --- | --- | --- | --- | --- |
| C[C@]12C=CC(=O)C=C1CC[C@@H]1[C@@H]2[C@@H](O)C[C@@]2(C)[C@H]1CC[C@]2(O)C(=O)CO [prednisolone, Prednisolone] | 4.25 | 4.25 | 3.5 | – | – | – | – | – |
| CCCC(=O)O [sodium butyrate] | – | – | – | 71 ± 7 | 60 | 11 ± 15 | 15 | 300 |

Source: US20240091324A1, “GASTROINTESTINAL HEALTH COMPOSITION” (priority 2019, published 2024)
